{"source": "paper PMC9126943", "about": "“ADAMTS4-specific MR probe to assess aortic aneurysms in vivo using synthetic peptide libraries” (Nature Communications, 2022)", "biological_target": "T1, ADAMTS4 in the aortic wall of ApoE−/− mice (Mus musculus, UniProt Q8BNJ2)", "T1 construct": "from tissue", "T1 sequence (Q8BNJ2 209-833)": "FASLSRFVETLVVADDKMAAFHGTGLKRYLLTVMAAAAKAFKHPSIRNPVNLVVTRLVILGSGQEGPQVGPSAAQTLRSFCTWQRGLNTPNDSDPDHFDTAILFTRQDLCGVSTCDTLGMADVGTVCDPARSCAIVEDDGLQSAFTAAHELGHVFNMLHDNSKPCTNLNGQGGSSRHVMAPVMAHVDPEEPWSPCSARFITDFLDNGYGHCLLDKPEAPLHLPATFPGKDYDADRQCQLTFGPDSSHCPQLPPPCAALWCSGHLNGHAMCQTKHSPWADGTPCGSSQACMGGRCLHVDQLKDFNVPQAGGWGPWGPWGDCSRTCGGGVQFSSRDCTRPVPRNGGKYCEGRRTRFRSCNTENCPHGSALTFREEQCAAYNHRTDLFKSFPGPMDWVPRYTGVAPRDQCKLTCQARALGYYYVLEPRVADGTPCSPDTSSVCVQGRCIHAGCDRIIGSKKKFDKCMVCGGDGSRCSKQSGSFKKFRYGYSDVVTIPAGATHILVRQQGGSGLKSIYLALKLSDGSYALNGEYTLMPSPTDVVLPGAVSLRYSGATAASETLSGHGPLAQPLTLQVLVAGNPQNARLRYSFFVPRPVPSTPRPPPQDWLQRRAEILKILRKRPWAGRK", "test": "In vivo MRI, early detection study (days 2, 4, 10)", "settings": "for ADAMTS4-MRI signal (CNR): day 4 of AngII", "experimental": "For the early detection study, we used an AAA group (n = 20). MR imaging was performed after 2, 4, and 10 days of AngII-infusion. At each time point, mice were scanned prior to and following the administration of the ADAMTS4-specific probe (0.13 mmol/kg body weight). On day 28 post implantation, only native imaging was performed and subsequently, the aortic samples were excised.\nMR imaging was performed using a clinical 3 T Siemens system (Biograph, Siemens Healthcare Solutions, Erlangen, Germany). The system was equipped with a 4-channel receive-coil array for mouse body applications (Mouse Heart Array, P-H04LE-030, Version 1, Rapid Biomedical, Germany). Following anesthesia injection, the animals were positioned in a prone position, and body temperature (37 °C) was monitored using an MR-compatible heating system (Model 1025, SA Instruments Inc, Stony Brook, NY) to avoid rapid cooling. For intravenous administration of the molecular probe, venous access was established using a small diameter tube with an attached 30 G cannula. The imaging protocol included the following sequences:\nAfter a three-dimensional (3D) gradient-echo scout scan, a non-contrast-enhanced two-dimensional time-of-flight angiography (2D TOF) was acquired in transverse orientation for visualization of the abdominal aorta with the following parameters: field of view (FOV) of […], a matrix of 960 × 960, resolution of 0.2 × 0.2 × 0.5 mm, 40 slices, repetition time (TR)/echo time (TE) of 35 ms/4.44 ms, flip angle of 90°, and bandwidth of 124 Hz/Px. A maximum intensity projection (MIP) was then automatically generated to obtain an arterial angiogram of the abdominal aorta for planning the subsequent MR angiography and delayed-enhancement scans. A 2D inversion time (TI) scout sequence, planned perpendicular to the abdominal aorta, was used to determine the optimal TI for blood-signal nulling. Acquisition parameters were as follows: for the 2D TI sequence—FOV 340 × 340 mm, matrix 576 × 576, spatial resolution 0.6 × 0.6 × 3 mm, TR/TE 44.91 ms/2.09 ms, flip angle 35°, bandwidth 579 Hz/Px, TR between subsequent IR pulses 1000 ms; and for the high-resolution 3D IR FLASH sequence—FOV 57 × 57 mm, matrix 384 × 384, spatial resolution = 0.1 × 0.1 × 0.3 mm, 56 slices, TR/TE = 1019.72/7.02 ms, flip angle 30°, bandwidth 130 Hz/px, TR between subsequent IR pulses = 1000 ms.\nAnalysis of resulting MR images was performed using OsiriX (version 7.1, OsiriX Foundation, Bernex, Switzerland). All morphometric measurements were conducted on high-resolution MRI images. In order to assess the signal intensities, regions of interest (ROIs) were measured as areas of signal enhancement, which were co-localized with areas of aneurysmal-aortic tissue. For these areas, the CNR was calculated using the following formula: CNR = (Combined vessel-wall and aneurysmal-aortic-tissue-signal − blood-signal)/standard-deviation-signal (noise). The signal of noise was defined as the standard deviation in pixel intensity from an ROI placed in the background air anterior to the aorta.", "note": "Where a SMILES comes first, the peptide text is derived from it. Bridges are numbered along the chain shown (N, C = ends). The star is where a group is joined. DOTA = O=C(O)CN1CCN(CC(=O)O)CCN(CC(=O)*)CCN(CC(=O)O)CC1"}
{"smiles": "N=C(N)NCCC[C@@H]1NC(=O)[C@H](CCCNC(=N)N)NC(=O)[C@H](CO)NC(=O)[C@@H](N)CSSC[C@@H](C(=O)N[C@@H](CO)C(=O)NCC(=O)NCC(=O)N[C@@H](CO)C(=O)NCC(=O)NCC(=O)N[C@@H](CCCCNC(=O)CN2CCN(CC(=O)O)CCN(CC(=O)O)CCN(CC(=O)O)CC2)C(=O)NCC(N)=O)NC(=O)CNC1=O", "note": "(Gd complex, metal not drawn) [ADAMTS4-specific probe] (H-CSRRGCSGGSGGK(DOTA)G-NH2; disulfide 1-6)", "values": [{"measurement": "ROC curve area for prediction of a fatal AAA rupture", "setting": "ADAMTS4-MRI level after 4 days", "value": 0.96}, {"measurement": "sensitivity for prediction of a fatal AAA rupture (ROC)", "setting": "ADAMTS4-MRI level after 4 days", "value": 0.88}, {"measurement": "specificity for prediction of a fatal AAA rupture (ROC)", "setting": "ADAMTS4-MRI level after 4 days", "value": 0.9}, {"measurement": "ADAMTS-4 levels (CNR)", "setting": "day 4, subgroup n = 4 without significant outward remodeling on MRI", "value": "11.7±0.8"}, {"measurement": "ADAMTS4-MRI signal (CNR)", "setting": "animals that developed an AAA and survived for 4 weeks", "value": "10.3 ± 1.1"}, {"measurement": "ADAMTS4-MRI signal (CNR)", "setting": "animals that did not develop an AAA", "value": "6.9 ± 1.2"}, {"measurement": "ADAMTS4-MRI signal (CNR)", "setting": "animals with fatal AAA rupture", "value": "15.2 ± 0.7"}]}
